Assay results published in ChEMBL document CHEMBL5537197, “Discovery of Novel Coumarin-quinolinium Derivatives as Pan-KRAS Translation Inhibitors by Targeting 5'-UTR RNA G-Quadruplexes” (J Med Chem, 2024).
The source made the active and inactive calls. No cut-off for these calls is given here.

Legend:
MIA PaCa-2 [1] = assay: Inhibition of cell proliferation of human MIA PaCa-2 cells at 0.32 to 1.25 uM incubated for 10 days by colony formation assay relative to control; type: functional; conditions: dose 0.32-1.25 µM, time 10 day
[2] = Cytotoxicity against human LX2 cells harboring wild-type KRAS assessed as cell growth inhibition incubated for 24 hrs by MTT assay; type: toxicity, cell-based, LX-2
MIA PaCa-2 [3] = assay: Induction of apoptosis in human MIA PaCa-2 cells assessed as increase in caspase-3 cleavage by Western blot analysis; type: functional, cell-based; conditions: dose 1.25-5 µM
MIA PaCa-2 [4] = assay: In vivo inhibition of KRAS in human MIA PaCa-2 cells xenografted in BALB/C-nu/nu mouse model at 2.5 to 5 mg/kg,ip everyday for 18 days by Western blot analysis; type: functional, organism-based; conditions: dose 2.5-5 mg/kg, time 18.0 day
[5] = test system: GTPase KRas (Homo sapiens), P01116 [G12D]; assay: Inhibition of KRAS G12D mutant in human PANC-1 cells incubated for 24 hrs by Western blot analysis; type: cell-based; conditions: dose <= 5.0 µM
Chain of GTPase KRas (Homo sapiens), P01116 [G12D] (P01116 whole entry G12D, looked up): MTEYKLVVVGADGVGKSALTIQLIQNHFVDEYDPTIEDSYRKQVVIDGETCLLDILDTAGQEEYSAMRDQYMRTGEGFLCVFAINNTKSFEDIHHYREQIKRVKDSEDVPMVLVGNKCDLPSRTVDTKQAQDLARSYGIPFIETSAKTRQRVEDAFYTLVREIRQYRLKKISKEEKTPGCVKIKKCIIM

NCM460 = assay: Cytotoxicity against human NCM460 cells harboring wild-type KRAS assessed as cell growth inhibition incubated for 24 hrs by MTT assay; type: functional, cell-based; conditions: NCM460, 24 h
[6] = target: GTPase KRas (Homo sapiens) (UniProt P01116); assay: Inhibition of KRAS in human PANC-1 cells at 2.5 uM incubated for 24 hrs by Western blot analysis; type: cell-based
Chain of GTPase KRas (Homo sapiens) (P01116 whole entry, looked up): as the sequence (P01116 whole entry G12D, looked up) above, with D12G counted along it

MIA PaCa-2 [7] = assay: In vivo inhibition of KRAS in human MIA PaCa-2 cells xenografted in BALB/C-nu/nu mouse model at 2.5 to 5 mg/kg,ip everyday for 18 days by IHC analysis; type: functional, organism-based; conditions: dose 2.5-5 mg/kg, time 18.0 day
[8] = test system: GTPase KRas (Homo sapiens), P01116 [G12C]; assay: Inhibition of KRAS G12C mutant in human NCI-H358 cells incubated for 24 hrs by Western blot analysis; type: cell-based; conditions: dose <= 5.0 µM
Chain of GTPase KRas (Homo sapiens), P01116 [G12C] (P01116 whole entry G12C): as the sequence (P01116 whole entry G12D, looked up) above, with D12C counted along it

MIA PaCa-2 [9] = assay: Antitumor activity against human MIA PaCa-2 cells xenografted in BALB/C-nu/nu mouse model assessed as reduction in tumor weight at 2.5 to 5 mg/kg,ip everyday for 18 days; type: functional, organism-based; conditions: dose 2.5-5 mg/kg, time 18.0 day
[10] = Toxicity in BALB/C-nu/nu mouse model xenografted with human MIA PaCa-2 cells assessed as signs of pain at 2.5 to 5 mg/kg,ip everyday for 18 days; type: organism-based; conditions: in vivo, 432 h, dose 2.5-5 mg/kg, time 18 day
Quadruplex RNA = assay: Binding affinity to KRAS RNA G-Quadruplex (unknown origin) assessed as melting temperature at 25 uM at 25 to 95 degreeC by CD spectroscopy (reference value: 71.4 degreeC); type: nucleic-acid assay
Quadruplex DNA [11] = assay: Disruption of DHX36/KRAS rG-Quadruplex (unknown origin) by ELISA; type: nucleic-acid assay; conditions: dose 20.0 µM
[12] = Toxicity in BALB/C-nu/nu mouse model xenografted with human MIA PaCa-2 cells assessed as signs of discomfort at 2.5 to 5 mg/kg,ip everyday for 18 days; type: organism-based; conditions: in vivo, 432 h, dose 2.5-5 mg/kg, time 18 day
[13] = Toxicity in BALB/C-nu/nu mouse model xenografted with human MIA PaCa-2 cells assessed as signs of distress at 2.5 to 5 mg/kg,ip everyday for 18 days; type: organism-based; conditions: in vivo, 432 h, dose 2.5-5 mg/kg, time 18 day
[14] = target: GTPase KRas (Homo sapiens) (UniProt P01116); assay: Inhibition of KRAS in human MIA PaCa-2 cells assessed as decrease in ERK phosphorylation at 2.5 uM by Western blot analysis; type: cell-based; conditions: time <= 24.0 hrs, TDE = time-dependent effect
[15] = target: GTPase KRas (Homo sapiens) (UniProt P01116); assay: Inhibition of KRAS in human MIA PaCa-2 cells assessed as decrease in MEK phosphorylation at 2.5 uM by Western blot analysis; type: cell-based; conditions: time <= 24.0 hrs, TDE = time-dependent effect
NCI-H358 = assay: Effect on KRAS mRNA level in human NCI-H358 cells harboring KRAS G12C mutant at upto 5 uM incubated upto 48 hrs by RT-qPCR analysis; type: functional, cell-based
[16] = test system: GTPase KRas (Homo sapiens), P01116 [G12D]; assay: Inhibition of KRAS G12D mutant in human PANC-1 cells at 2.5 uM by Western blot analysis; type: cell-based; conditions: time <= 48.0 hrs, TDE = time-dependent effect
MIA PaCa-2 [17] = assay: Effect on total protein level in human MIA PaCa-2 cells at 2.5 uM incubated for upto 24 hrs by Western blot analysis; type: functional, cell-based
MIA PaCa-2 [18] = assay: Effect on KRAS mRNA level in human MIA PaCa-2 cells harboring KRAS G12C mutant at upto 5 uM incubated upto 48 hrs by RT-qPCR analysis; type: functional, cell-based
MIA PaCa-2 [19] = assay: Induction of cell cycle arrest at G2/M phase in human MIA PaCa-2 cells incubated for 24 hrs by PI staining based HCS analysis; type: functional; conditions: dose 1.25-5 µM
PANC-1 [20] = assay: Effect on NRAS level in human PANC-1 cells harboring KRAS G12D mutant at 1.25 to 5 uM by Western blot analysis; type: functional, cell-based; conditions: dose 1.25-5 µM
[21] = Cytotoxicity against human HFL1 cells harboring wild-type KRAS assessed as cell growth inhibition incubated for 24 hrs by MTT assay; type: toxicity, cell-based
[22] = Toxicity in BALB/C-nu/nu mouse model xenografted with human MIA PaCa-2 cells assessed as drug tolerance at 2.5 to 5 mg/kg,ip everyday for 18 days; type: organism-based; conditions: in vivo, 432 h, dose 2.5-5 mg/kg, time 18 day
[23] = target: GTPase KRas (Homo sapiens) (UniProt P01116); assay: Inhibition of KRAS in human MIA PaCa-2 cells assessed as decrease in total protein level at 1.25 to 5 uM incubated for 24 hrs by Western blot analysis; type: cell-based; conditions: dose 1.25-5 µM
PANC-1 [24] = assay: Cytotoxicity against human PANC-1 cells overexpressing KRAS G12D mutant assessed as cell death incubated for 24 hrs by MTT assay; type: functional, cell-based
[25] = target: GTPase KRas (Homo sapiens) (UniProt P01116); assay: Inhibition of KRAS in human MIA PaCa-2 cells assessed as decrease in AKT phosphorylation at 2.5 uM by Western blot analysis; type: cell-based; conditions: time <= 24.0 hrs, TDE = time-dependent effect
MIA PaCa-2 [26] = assay: Antitumor activity against human MIA PaCa-2 cells xenografted in BALB/C-nu/nu mouse model assessed as decrease of tumor volume administered intraperitoneally everyday for 18 days; type: functional, cell-based; conditions: dose 2.5-5 mg/kg, route ip, time 18.0 day
PANC-1 [27] = assay: Effect on KRAS mRNA level in human PANC-1 cells harboring KRAS G12D mutant at upto 5 uM incubated upto 48 hrs by RT-qPCR analysis; type: functional, cell-based
HCT-116 = assay: Cytotoxicity against human HCT-116 cells harboring KRAS G13D mutant assessed as cell growth inhibition incubated for 24 hrs by MTT assay; type: functional, cell-based; conditions: HCT-116, 24 h
MIA PaCa-2 [28] = assay: Effect on total KRAS mRNA level in human MIA PaCa-2 cells xenografted in BALB/C-nu/nu mouse model at 2.5 to 5 mg/kg,ip everyday for 18 days by RT-qPCR analysis; type: functional, organism-based; conditions: dose 2.5-5 mg/kg, time 18.0 day
MIA PaCa-2 [29] = assay: Cytotoxicity against human MIA PaCa-2 cells harboring KRAS G12C mutant assessed as cell growth inhibition incubated for 24 hrs by MTT assay; type: functional, cell-based; conditions: MIA PaCa-2, 24 h
[30] = target: GTPase KRas (Homo sapiens) (UniProt P01116); assay: Inhibition of KRAS in human MIA PaCa-2 cells assessed as decrease in mTOR phosphorylation at 2.5 uM by Western blot analysis; type: cell-based; conditions: time <= 24.0 hrs, TDE = time-dependent effect
Quadruplex DNA [31] = assay: Binding affinity to KRAS DNA G-Quadruplex (unknown origin) assessed as melting temperature at 25 uM at 25 to 95 degreeC by CD spectroscopy (reference value: 50.1 degreeC); type: nucleic-acid assay

SMILES: CCN(CC)c1ccc2cc(/C=C/c3ccc4cc(F)c(NCCN5CCCC5)cc4[n+]3C)c(=O)oc2c1.[I-]
- inhibition (INH) (MIA PaCa-2 [1]): 100%
- IC50 at 24 h [2]: > 40 µM
- Activity (MIA PaCa-2 [3]): Dose-Dependent Effect
- Activity (MIA PaCa-2 [4]): Active
- inhibition [5]: Dose-Dependent Effect
- IC50 (NCM460): > 40 µM
- inhibition [6]: Active
- Activity (MIA PaCa-2 [7]): Active
- inhibition [8]: Dose-Dependent Effect
- Activity (MIA PaCa-2 [9]): Active
- Activity [10]: Non-Toxic
- Tm (Quadruplex RNA): 51.3 °C
- Activity (Quadruplex DNA [11]): Dose-Dependent Effect
- Activity [12]: Non-Toxic
- Activity [13]: Non-Toxic
- inhibition [14]: Tde
- inhibition [15]: Tde
- Activity (NCI-H358): inactive
- inhibition [16]: Tde
- Activity (MIA PaCa-2 [17]): inactive
- Activity (MIA PaCa-2 [18]): inactive
- Activity (MIA PaCa-2 [19]): Dose-Dependent Effect
- Activity (PANC-1 [20]): inactive
- IC50 at 24 h [21]: > 40 µM
- Activity [22]: Non-Toxic
- inhibition [23]: Active
- Activity (PANC-1 [24]): inactive
- inhibition [25]: Tde
- Activity (MIA PaCa-2 [26]): Dose-Dependent Effect
- Activity (PANC-1 [27]): inactive
- IC50 (HCT-116): 4 µM
- Activity (MIA PaCa-2 [28]): inactive
- IC50 (MIA PaCa-2 [29]): 33 µM
- inhibition [30]: Tde
- Tm (Quadruplex DNA [31]): 52 °C
